The target of the experiment is T1, human renin (Homo sapiens, UniProt P00797).
T1 construct: A human plasma pool is used as the source of both the substrate (angiotensinogen) and the enzyme (renin); from tissue; host or cells: human plasma pool
T1 sequence (P00797 67-406): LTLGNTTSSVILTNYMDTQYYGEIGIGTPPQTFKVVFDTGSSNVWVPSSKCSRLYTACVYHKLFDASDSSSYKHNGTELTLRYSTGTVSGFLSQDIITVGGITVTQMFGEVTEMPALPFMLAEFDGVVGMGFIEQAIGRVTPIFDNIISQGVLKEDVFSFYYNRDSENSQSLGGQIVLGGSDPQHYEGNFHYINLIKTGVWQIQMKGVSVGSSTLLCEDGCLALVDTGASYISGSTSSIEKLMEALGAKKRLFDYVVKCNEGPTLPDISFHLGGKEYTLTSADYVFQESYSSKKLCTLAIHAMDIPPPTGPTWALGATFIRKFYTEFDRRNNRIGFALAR
Kind of experiment: Plasma renin assay (inhibition of human renin, angiotensin I by RIA). The class given is biochemical. The note with it: human plasma pool, pH 6.0, 2 h incubation at 37°. Here is the method:
The assay is performed as follows: The test compound (i.e. the inhibitor) is dissolved in dimethylsulfoxide (1 mM stock solution) and diluted with an aqueous buffer solution of 270 mM 2-(N-morpholino)ethanesulfonic acid and 1% human serum albumin (pH 5.85, also containing dimercaprol and 8-hydroxyquinoline sulfate in accordance with the instructions of the RIA kit noted below) to give an assay mixture in which the final dimethylsulfoxide content is 1% (v/v).
A human plasma pool is used as the source of both the substrate (angiotensinogen) and the enzyme (renin). The reaction is initiated by the addition of 50 μL of human plasma pool to 50 μL of various concentrations of inhibitor in the 1% dimethylsulfoxide assay buffer. The plasma renin activity is measured by the amount of angiotensin I generated at pH 6.0 following a 2 h incubation at 37°.
Quantitation of angiotensin I is performed by radioimmunoassay (RIA kit from New England Nuclear-Dupont, Mississauga, ON, Canada). The enzymatic activity of renin is expressed in ng of angiotensin I generated (/mL/2 h). The extent of inhibition of the reaction is determined from the amount of angiotensin I generated in reference to a control prepared without inhibitor. Nonlinear regression analysis is used to calculate the IC50 values, i.e. the molar concentration of the test compound required to cause a 50% inhibition of the enzyme activity.
For `CC(C)C[C@H](O)[C@H](O)[C@H](CC1CCCCC1)NC(=O)[C@@H](CC(=O)N(CC(=O)N(C)C)[C@@H](C)c1cccc2ccccc12)CC1CC1` [Compound 18, N^4-[2-(dimethylamino)-2-oxoethyl]-N^4-[1(S)-(1-naphthylethyl)]-N^1-[1(S)-(cyclohexylmethyl)-2(R),3(S)-dihydroxy-5-methylhexyl]-2(R)-(cyclopropylmethyl)butanediamide], the IC50 (usually the concentration needed to halve the response being measured) is 170 nM. As to `CCC[C@H](CC(=O)N(CC(=O)N(C)CCc1ccccn1)Cc1ccccc1)C(=O)N[C@@H](CC1CCCCC1)[C@@H](O)[C@@H](O)CC(C)C` [Compound 26, N^4-benzyl-N^4 -{2-{methyl[2-(2-pyridinyl)ethyl]amino}-2-oxoethyl}-N^1-[1(S)-(cyclohexylmethyl)-2(R),3(S)-dihydroxy-5-methylhexyl]-2(R)-propylbutanediamide], 29 nM corresponded to half-maximal inhibition (IC50). In turn, `C[C@@H](c1ccccc1)N(CC(=O)N(C)C)C(=O)C[C@@H](Cc1csc(N)n1)C(=O)N[C@@H](CC1CCCCC1)[C@@H](O)[C@@H]1CC(C)(C)N(C)C1=O` [Compound 44, N^4-[2-(dimethylamino)-2-oxoethyl]-N^4-[1(S)-phenylethyl]-N^1-[1(S)-(cyclohexylmethyl)-2(S)-hydroxy-2-(1,5,,5-trimethyl-2-oxopyrrolidin-3(S)-yl)ethyl]-2(R)-[(2-amino-4-thiazolyl)methyl]butanediamide] registered an IC50 of 2.4 nM. Regarding `CC(C)C[C@H](O)[C@H](O)[C@H](CC1CCCCC1)NC(=O)[C@@H](CC(=O)N(CC(=O)N(C)CCc1ccccn1)Cc1ccccc1)Cc1cccs1` [Compound 34, N^4-benzyl-N^4 -{2-{methyl[2-(2-pyridinyl)ethyl]amino}-2-oxoethyl}-N^1-[1(S)-(cyclohexylmethyl)-2(R),3(S)-dihydroxy-5-methylhexyl]-2(S)-(2-thienylmethyl)butanediamide], it took 13 nM to reach half-maximal inhibition (IC50). `CC(C)C[C@H](O)[C@H](O)[C@H](CC1CCCCC1)NC(=O)[C@@H](CC(=O)N(CC(=O)N(C)C)CC1CCCCC1)Cc1cccnc1` [Compound 58, N^4-(cyclohexylmethyl)-N^4-[2-(dimethylamino)-2-oxoethyl]-N^1-[1(S)-(cyclohexylmethyl)-2(R),3(S)-dihydroxy-5-methylhexyl]-2(R)-(3-pyridinylmethyl)butanediamide] displayed an IC50 of 10 nM. In the case of `CC(C)C[C@H](O)[C@H](O)[C@H](CC1CCCCC1)NC(=O)[C@@H](CC(=O)N(CC(=O)N(C)C)Cc1cccc2ccccc12)CC1CC1` [Compound 9, N^4-[2-(dimethylamino)-2-oxoethyl]-N^4-(1-naphthylmethyl)-N^1-[1(S)-(cyclohexylmethyl)-2(R),3(S)-dihydroxy-5-methylhexyl]-2(R)-(cyclopropylmethyl)butanediamide] it was 66 nM. In the case of `CC(C)C[C@H](O)[C@H](O)[C@H](CC1CCCCC1)NC(=O)[C@@H](CC(=O)N(CC(=O)N1CCOCC1)CC1CCCCC1)Cc1nccs1` [Compound 39, N^4-(cyclohexylmethyl)-N^4-(2-morpholino-2-oxoethyl)-N^1-[1(S)-(cyclohexylmethyl)-2(R),3(S)-dihydroxy-5-methylhexyl]-2(S)-(2-thiazolylmethyl)butanediamide] it was 1.6 nM. On to `CC(C)C[C@H](O)[C@H](O)[C@H](CC1CCCCC1)NC(=O)[C@@H](CC(=O)N(CC(=O)N(C)C)[C@@H](C)c1ccccc1)Cc1cccs1` [Compound 32, N^4-(2-(dimethylamino)-2-oxoethyl]-N^4-(1(S)-phenylethyl]-N^1-[1(S)-(cyclohexylmethyl)-2(R),3(S)-dihydroxy-5-methylhexyl]-2(S)-(2-thienylmethyl)butanediamide], for which the concentration for half-maximal inhibition (IC50) is 13 nM. The molecule `CC(C)C[C@H](O)[C@H](O)[C@H](CC1CCCCC1)NC(=O)[C@@H](CC(=O)N(CC(=O)N(C)CCc1ccccn1)CC1CCCCCC1)Cc1csc(N)n1` [Compound 81, N^4-(cycloheptylmethyl)-N^4 -{2-{methyl[2-(2-pyridinyl)ethyl]amino}-2-oxoethyl}-N^1-[1(S)-(cyclohexylmethyl)-2(R),3(S)-dihydroxy-5-methylhexyl]-2(R)-[(2-amino-4-thiazolyl)-methyl]butanediamide] showed a half-maximal inhibitory concentration (IC50) of 1 nM. In the case of `CC(C)C[C@H](O)[C@H](O)[C@H](CC1CCCCC1)NC(=O)[C@@H](CC(=O)N(CC(=O)N(C)C)CC(C)(C)c1ccccc1)CC1CC1` [Compound 21, N^4-[2-(dimethylamino)-2-oxoethyl]-N^4-(2-methyl-2-phenylpropyl)-N^1-[1(S)-(cyclohexylmethyl)-2(R),3(S)-dihydroxy-5-methylhexyl]-2(R)-(cyclopropylmethyl)butanediamide] it was 150 nM; in that of `CC(C)C[C@H](O)[C@H](O)[C@H](CC1CCCCC1)NC(=O)[C@@H](CC(=O)N(CC(=O)N(C)CCN(C)C(=O)N1CCOCC1)[C@@H](C)c1ccccc1)Cc1csc(N)n1` [Compound 15, N^4 -{2-{methyl{2-[methyl(morpholinocarbonyl)amino]ethyl}amino}-2-oxoethyl}-N^4-[1(S)-phenylethyl]-N^1-[1(S)-(cyclohexylmethyl)-2(R),3(S)-dihydroxy-5-methylhexyl]-2(R)-[(2-amino-4-thiazolyl)methyl]butanediamide], 0.5 nM. `CCCC(CCC)N(CC(=O)N(C)CCc1ccccn1)C(=O)C[C@@H](Cc1csc(N)n1)C(=O)N[C@@H](CC1CCCCC1)[C@@H](O)[C@@H](O)CC(C)C` [Compound 91] came in with a concentration for half-maximal inhibition (IC50) of 8 nM. `CC(C)C[C@H](O)[C@H](O)[C@H](CC1CCCCC1)NC(=O)[C@@H](CC(=O)N(CC(=O)N(C)CCc1ccccn1)Cc1ccccc1)Cc1nccs1` [Compound 41, N^4-benzyl-N^4 -{2-{methyl[2-(2-pyridinyl)ethyl]amino}-2-oxoethyl}-N^1-[1(S)-(cyclohexylmethyl)-2(R),3(S)-dihydroxy-5-methylhexyl]-2(S)-(2-thiazolylmethyl)butanediamide] returned a 50% inhibitory concentration (IC50) of 3.5 nM. Molecule `CC(C)C[C@H](O)[C@H](O)[C@H](CC1CCCCC1)NC(=O)[C@@H](CC(=O)N(CC(=O)N(C)C)CC1CCCCC1)Cc1ccccc1` [Compound 55, N^4-(cyclohexylmethyl)-N^4-[2-(dimethylamino)-2-oxoethyl]-N^1-[1(S)-(cyclohexylmethyl)-2(R),3(S)-dihydroxy-5-methylhexyl]-2(R)-(phenylmethyl)butanediamide] yielded an IC50 of 16 nM. In turn, `CC(C)C[C@H](O)[C@H](O)[C@H](CC1CCCCC1)NC(=O)[C@@H](CC(=O)N(CCCc1ccccc1)CC(=O)N(C)C)CC1CC1` [Compound 4, N^4-[2-(dimethylamino)-2-oxoethyl]-N^4-(3-phenylpropyl)-N^1-[1(S)-(cyclohexylmethyl)-2(R),3(S)-dihydroxy-5-methylhexyl]-2(R)-(cyclopropylmethyl)butanediamide] had an IC50 of 220 nM. In turn, `CC(C)C[C@H](O)[C@H](O)[C@H](CC1CCCCC1)NC(=O)[C@@H](CC(=O)N(CC(=O)N(C)CCc1ccccn1)CC1CCCCC1)CC1CC1` [Compound 46, N^4-(cyclohexylmethyl)-N^4 -{2-{methyl-[2-(2-pyridinyl)-ethyl]amino}-2-oxoethyl}-N^1-[1(S)-(cyclohexylmethyl)-2(R),3(S)-dihydroxy-5-methylhexyl]-2(R)-(cyclopropylmethyl)butanediamide] registered an IC50 of 12 nM.

The record behind these values is patent US5541163A, “Renin inhibiting N-(2-amino-2-oxoethyl)butanediamide derivatives” (Bio-Mega/Boehringer Ingelheim Research Inc., priority 1993, dated 1996).
